Test results taken from publication PMC11817140, “Characterization of Novel Plantaricin-Derived Antiviral Peptides Against Flaviviruses” (International Journal of Molecular Sciences, 2025).
“And” between values parts separate entries of the source, which are not always exact repeats. Equal entries are not always repeated.

System: West Nile virus Kunjin strain (KUNV)
Experiment: Plaque reduction assay in Vero cells after pre-incubating virus with peptide
Type: cell-based
Conditions: 10 µM peptide, KUNV 1 × 10^5 PFU exposed in DMEM for 1 h at room temperature, then Vero cells 1 h, overlay, 3 days, mean with SD of three independent experiments
Experimental: The antiviral activity of the synthesized peptides was evaluated using plaque reduction assays in Vero cells against West Nile virus Kunjin strain (KUNV, accession number AY274504). Vero cells (Vero E6, ATCC, CRL-1586, Manassas, VA, USA) were maintained in Dulbecco’s Modified Eagle Medium (DMEM, Thermo Fisher Scientific, Gibco, Göteborg, Sweden), supplemented with 10% fetal bovine serum (FBS, Thermo Fisher Scientific, Gibco, Göteborg, Sweden) and antibiotics (PEST, Thermo Fisher Scientific, Gibco, Göteborg, Sweden). For the antiviral assays, Vero cells were seeded in 24-well plates and allowed to reach confluency. The virus suspension (1 × 10^5 PFU) was pre-incubated with the peptides at 10 µM concentration or lower (in the combination experiment) for 1 h at room temperature. The peptide–virus mixtures were then added to the Vero cell monolayers and incubated for 1 h at 37 °C. Following incubation, the inoculum was removed, and cells were overlaid with Avicel 2.4% overlay media (FMC, Philadelphia, PA, USA). Plates were incubated for 3 days at 37 °C in a CO2 incubator. Post-incubation, cells were fixed with 100% methanol and stained with 1% crystal violet to visualize and count viral plaques. The reduction in plaque numbers compared to control wells (virus without peptide) was used to quantify antiviral activity.

Substance | KUNV (% Reduction) | KUNV (% Reduction) (listed as PLNC8 α1-15) | KUNV (% Reduction) (listed as PLNC8 β1-20)
α1-15: truncated peptide derived from PLNC8 α (DLTTKLWSSWGYYLG) | 91 ± 2% | over 90% | –
SVPTSVYTLGQKILRSARKFGKDIEKSFNKGFYH [β14, modified peptide derived from PLNC8 β] | 6 ± 8% | – | –
α1-8: truncated peptide derived from PLNC8 α (DLTTKLWS) | 20 ± 18% | – | –
β28-34: truncated peptide derived from PLNC8 β (FNKGFYH) | 11 ± 15% | – | –
β4-17: truncated peptide derived from PLNC8 β (TSVYTLGIKILWSA) | 56 ± 32% | – | –
β1-20: truncated peptide derived from PLNC8 β (SVPTSVYTLGIKILWSAYKH) | 92 ± 4% | – | over 90%
SVPTSVYLLGIKILWKARKFGKVIEKSFNKGFYH [β18, modified peptide derived from PLNC8 β] | 12 ± 1% | – | –
α9-22: truncated peptide derived from PLNC8 α (SWGYYLGKKARWNL) | 7 ± 7% | – | –
β7-13: truncated peptide derived from PLNC8 β (YTLGIKI) | 8 ± 4% | – | –
AYSLQMGATAIKQVKKLFKKWGW [PlnA, full-length plantaricin A, peptide pheromone of Lactobacillus plantarum C11, reference compound] | 27 ± 9% | – | –
α23-29: truncated peptide derived from PLNC8 α (KHPYVQF) | 10 ± 4% | – | –
FNRGGYNFGKSVRHVVDAIGSVAGIRGILKSIR [PlnE, full-length peptide E of two-peptide plantaricin EF, reference compound] | 24 ± 6% | – | –
SVPTSVYTLGIKILWSARKFGKVIEKSFNKGFYH [β16, modified peptide derived from PLNC8 β] | 84 ± 8% | – | –
β7-34: truncated peptide derived from PLNC8 β (YTLGIKILWSAYKHRKTIEKSFNKGFYH) | 52 ± 27% | – | –
GAWKNFWSSLRKGFYDGEAGRAIRR [PlnJ, full-length peptide J of two-peptide plantaricin JK, reference compound] | 30 ± 8% | – | –
α1-22: truncated peptide derived from PLNC8 α (DLTTKLWSSWGYYLGKKARWNL) | 28 ± 2% | – | –
α9-15: truncated peptide derived from PLNC8 α (SWGYYLG) | 16 ± 7% | – | –

Substance | KUNV (% Reduction) | KUNV (% Reduction) (listed as PLNC8 α1-15) | KUNV (% Reduction) (listed as PLNC8 β1-20)
SVPTSVYTLGIKILRSARKFGKVIEKSFNKGFYH [β15, modified peptide derived from PLNC8 β] | 9 ± 13% | – | –
SVPTSVYTLGQKILRSARKFGKTIEKSFNKGFYH [β13, modified peptide derived from PLNC8 β] | 8 ± 11% | – | –
α16-29: truncated peptide derived from PLNC8 α (KKARWNLKHPYVQF) | 2 ± 0% | – | –
α9-29: truncated peptide derived from PLNC8 α (SWGYYLGKKARWNLKHPYVQF) | 10 ± 6% | – | –
β1-6: truncated peptide derived from PLNC8 β (SVPTSV) | 21 ± 22% | – | –
β7-20: truncated peptide derived from PLNC8 β (YTLGIKILWSAYKH) | 65 ± 20% | – | –
β21-34: truncated peptide derived from PLNC8 β (RKTIEKSFNKGFYH) | 0 ± 0% | – | –
DLTTKLWSSWGYYLGKKARWNLKHPYVQF [PLNC8 α, full-length α peptide (29 amino acids) of two-peptide bacteriocin plantaricin NC8 αβ, reference compound] | ~ 35% and 35 ± 2% | – | –
β1-13: truncated peptide derived from PLNC8 β (SVPTSVYTLGIKI) | 5 ± 7% | – | –
SVPTSVYLLGIKILWSARKFGKVIEKSFNKGFYH [β17, modified peptide derived from PLNC8 β] | 14 ± 12% | – | –
β14-34: truncated peptide derived from PLNC8 β (LWSAYKHRKTIEKSFNKGFYH) | 5 ± 0.2% | – | –
RRSRKNGIGYAIGYAFGAVERAVLGGSRDYNK [PlnK, full-length peptide K of two-peptide plantaricin JK, reference compound] | 18 ± 9% | – | –
SVPTSVYTLGIKILWSAYKHRKTIEKSFNKGFYH [PLNC8 β, full-length β peptide (34 residues) of two-peptide bacteriocin plantaricin NC8 αβ, reference compound] | 70 ± 12% | – | –
β10-17: truncated peptide derived from PLNC8 β (GIKILWSA) | 0 ± 0% | – | –
α16-22: truncated peptide derived from PLNC8 α (KKARWNL) | 3 ± 6% | – | –
VFHAYSARGVRNNYKSAVGPADWVISAVRGFIHG [PlnF, full-length peptide F of two-peptide plantaricin EF, reference compound] | 24 ± 6% | – | –
β14-20: truncated peptide derived from PLNC8 β (LWSAYKH) | 3 ± 4% | – | –
